Data published in paper PMC11174011, “In Vitro and Molecular Docking Evaluation of the Anticholinesterase and Antidiabetic Effects of Compounds from Terminalia macroptera Guill. & Perr. (Combretaceae)” (Molecules, 2024).
Read-outs that look alike come from different tables or passages of the source.

Key:
[1] = target: AChE (electric eel source) (Electrophorus electricus, UniProt O42275); test: biochemical
[2] = target: BChE (horse serum source) (Equus caballus, UniProt P81908); test: biochemical
BChE (horse serum source), sequence (P81908 whole entry): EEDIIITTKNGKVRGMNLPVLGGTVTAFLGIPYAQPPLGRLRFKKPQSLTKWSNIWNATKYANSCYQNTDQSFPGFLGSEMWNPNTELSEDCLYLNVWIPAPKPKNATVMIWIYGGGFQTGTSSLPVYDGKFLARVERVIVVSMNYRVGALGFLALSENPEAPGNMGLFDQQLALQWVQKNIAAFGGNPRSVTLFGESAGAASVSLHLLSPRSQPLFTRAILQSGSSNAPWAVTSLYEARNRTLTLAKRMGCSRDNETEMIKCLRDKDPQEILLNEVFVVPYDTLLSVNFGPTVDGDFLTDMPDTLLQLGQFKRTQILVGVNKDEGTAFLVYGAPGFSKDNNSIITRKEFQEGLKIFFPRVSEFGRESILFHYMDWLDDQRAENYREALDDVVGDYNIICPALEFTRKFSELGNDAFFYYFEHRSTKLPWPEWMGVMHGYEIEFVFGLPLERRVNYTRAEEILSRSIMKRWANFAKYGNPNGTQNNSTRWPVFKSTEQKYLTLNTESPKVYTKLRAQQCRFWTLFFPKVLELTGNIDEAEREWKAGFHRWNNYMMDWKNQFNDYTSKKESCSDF
Source text: A standard spectrophotometric method was used to measure the anticholinesterase activity using both the butyrylcholinesterase (BChE) and acetylcholinesterase (AChE) enzymes, as described elsewhere but with slight modifications [59, 60]. […] The substrates used in the AChE and BChE assays were acetylthiocholine iodide and butyrylthiocholine chloride, respectively. DTNB (5,5′-Dithio-bis(2-nitrobenzoic) acid) was used for monitoring the cholinesterase activity.

[3] = target: T1, α-amylase (porcine pancreas source) (Sus scrofa, UniProt P00690); test: α-Amylase inhibitory assay (starch iodine protocol); type: biochemical
T1 construct: A porcine pancreas source of α-amylase (50 µL), 25 µL of the samples; from tissue; host or cells: porcine pancreas
T1 sequence (P00690 16-511): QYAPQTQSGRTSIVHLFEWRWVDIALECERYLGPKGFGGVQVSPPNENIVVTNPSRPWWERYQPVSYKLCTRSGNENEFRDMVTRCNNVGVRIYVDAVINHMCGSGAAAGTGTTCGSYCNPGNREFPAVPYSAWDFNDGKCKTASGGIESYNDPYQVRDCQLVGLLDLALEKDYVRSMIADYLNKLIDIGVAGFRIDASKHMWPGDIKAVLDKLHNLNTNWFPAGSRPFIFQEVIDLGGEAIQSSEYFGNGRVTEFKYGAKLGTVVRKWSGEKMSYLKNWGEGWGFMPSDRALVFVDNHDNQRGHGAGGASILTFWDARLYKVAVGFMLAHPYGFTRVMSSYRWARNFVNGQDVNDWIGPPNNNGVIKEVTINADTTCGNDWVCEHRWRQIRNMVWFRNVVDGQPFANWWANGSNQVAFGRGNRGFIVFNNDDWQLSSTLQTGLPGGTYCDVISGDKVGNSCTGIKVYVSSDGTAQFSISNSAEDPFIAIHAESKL
Procedure: In the α-amylase inhibition assay, the starch iodine protocol was used with few changes [62, 63]. A porcine pancreas source of α-amylase (50 µL), 25 µL of the samples, 6 mM NaCl, and phosphate buffer (pH 6.9) solution were mixed in a 96-well microplate and incubated at 37 °C for 10 min. Then, 50 µL of 0.05% starch solution was added to the reaction mixture and further incubated under the same conditions, after which Lugol (100 µL) and HCl (0.1 M, 25 µL) solutions were added to complete the reaction.

[4] = target: α-glucosidase (fungal source from Saccharomyces cerevisiae); test: α-Glucosidase inhibitory assay (PNPG); type: biochemical; set-up: IC50 ± SEM (α-glucosidase): unit not given beside the values; conditions: for IC50 ± SEM (α-glucosidase): Table 2, repeats Table 1, unit not given; for α-Glucosidase IC50: maximum concentration 200 µg/mL, means ± SEM of three measurements
[5] = evaluated up to 100 µg/mL, means ± SEM of three measurements, read-out: AChE IC50 (converted)
[6] = evaluated up to 100 µg/mL, means ± SEM of three measurements, read-out: BChE IC50 (converted)
[7] = Table 3, repeats Table 1, unit inferred, read-out: IC50 ± SEM (Butyrylcholinesterase)
[8] = Table 3, repeats Table 1, unit inferred, read-out: IC50 ± SEM (Acetylcholinesterase)
[9] = read-out: IC50 ± SEM (α-amylase), Table 2, repeats Table 1, unit inferred

AChE (electric eel source), sequence (O42275 24-633): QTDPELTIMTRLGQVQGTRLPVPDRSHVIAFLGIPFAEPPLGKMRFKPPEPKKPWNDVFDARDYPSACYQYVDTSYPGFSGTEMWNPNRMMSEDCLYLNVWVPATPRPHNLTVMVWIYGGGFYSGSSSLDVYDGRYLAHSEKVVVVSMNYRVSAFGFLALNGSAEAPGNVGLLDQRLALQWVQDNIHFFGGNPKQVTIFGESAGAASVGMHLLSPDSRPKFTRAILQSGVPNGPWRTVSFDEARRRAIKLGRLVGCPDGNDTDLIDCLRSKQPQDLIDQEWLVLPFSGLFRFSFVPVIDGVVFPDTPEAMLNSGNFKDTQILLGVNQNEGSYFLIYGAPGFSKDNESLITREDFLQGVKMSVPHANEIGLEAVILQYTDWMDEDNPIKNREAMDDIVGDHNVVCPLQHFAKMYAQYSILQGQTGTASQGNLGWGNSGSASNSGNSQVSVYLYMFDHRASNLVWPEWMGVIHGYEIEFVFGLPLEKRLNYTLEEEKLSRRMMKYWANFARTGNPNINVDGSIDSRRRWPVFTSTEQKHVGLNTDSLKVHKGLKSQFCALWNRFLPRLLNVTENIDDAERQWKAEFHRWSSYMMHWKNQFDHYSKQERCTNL

Row | Structure (SMILES) | IC50 [1, 5] | IC50 [2, 6] | IC50 [3] | IC50 ± SEM (α-glucosidase) [4] | α-Glucosidase IC50 [4] | IC50 [2, 7] | IC50 [1, 8] | IC50 [2] | IC50 ([2]; read-out: IC50 ± SEM (Butyrylcholinesterase), Table 3, repeats Table 1, unit inferred) | IC50 [3, 9]
1 | COc1c(O)cc2c(=O)oc3c(OC)c(O)cc4c(=O)oc1c2c34 [Compound 1, 3,3′-di-O-methyl ellagic acid] | 142 µM | 153 µM | 203 µM | 74.18 ± 0.29 | 74.18 ± 0.29 µg/mL |  |  |  |  | 
2 | COc1cc2c(=O)oc3c(OC)c(O[C@@H]4OC[C@@H](O)[C@H](O)[C@H]4O)cc4c(=O)oc(c1OC)c2c34 [Compound 2, 3,3′,4′-tri-O-methyl ellagic acid-4-O-β-D-xylopyranoside] | 129 µM | > 210 µM | 216 µM | 121.51 ± 0.65 | 121.51 ± 0.65 µg/mL | > 210 µM |  |  |  | 
3 | COc1cc2c(=O)oc3c(OC)c(O[C@@H]4O[C@H](CO)[C@@H](O)[C@H](O)[C@H]4O)cc4c(=O)oc(c1OC)c2c34 [Compound 3, 3,3′,4′-tri-O-methyl ellagic acid-4-O-β-D-glucopyranoside] | 118 µM | 149 µM | 217 µM | 137.51 ± 0.81 | 137.51 ± 0.81 µg/mL |  |  |  |  | 
4 | COc1c(O)cc2c(=O)oc3c(OC)c(O[C@@H]4O[C@H](CO)[C@@H](O)[C@H](O)[C@H]4O)cc4c(=O)oc1c2c34 [Compound 4, 3,3′-di-O-methyl ellagic acid-4-O-β-D-glucopyranoside] | 129 µM | 182 µM | 185 µM | 97.75 ± 0.49 | 97.75 ± 0.49 µg/mL |  |  |  |  | 
5 | CC1OC(Oc2c(-c3cc(O)c(O)c(O)c3)oc3cc(O)cc(O)c3c2=O)C(O)C(O)C1O (stereo not drawn) [Compound 5, myricetin-3-O-rhamnoside] | > 215 µM |  | 140 µM | 69.02 ± 0.65 | 69.02 ± 0.65 µg/mL |  | > 215 µM | > 215 µM | > 215 µM | 
6 | O=C(O)C1=C[C@@H](O)[C@@H](O)[C@H](O)C1 [Compound 6, shikimic acid] | 317 µM |  | > 1150 µM | >200 | >200 µg/mL |  |  | 337 µM |  | > 1150 µM
7 | CC1(C)CC[C@]2(C(=O)O)CC[C@]3(C)C(=CC[C@@H]4[C@@]5(C)C[C@@H](O)[C@H](O)[C@@](C)(CO)[C@@H]5CC[C@]43C)[C@@H]2[C@@H]1O [Compound 7, arjungenin] | 106 µM | > 198 µM | 369 µM | 192.17 ± 0.78 | 192.17 ± 0.78 µg/mL | > 198 µM |  |  |  | 
8 | CC1(C)CC[C@]2(C(=O)O)CC[C@]3(C)C(=CC[C@@H]4[C@@]5(C)C[C@@H](O)[C@H](O)[C@@](C)(CO)[C@@H]5[C@H](O)C[C@]43C)[C@@H]2C1 [Compound 8, terminolic acid] | 130 µM | > 198 µM | 289 µM | 155.84 ± 0.31 | 155.84 ± 0.31 µg/mL | > 198 µM |  |  |  | 
9 | CC1(C)CCC2(C(=O)OC3OC(CO)C(O)C(O)C3O)CCC3(C)C(=CCC4C5(C)CC(O)C(O)C(C)(C)C5CCC43C)C2C1O (stereo not drawn) [Compound 9, 24-deoxysericoside] | > 154 µM | > 154 µM | > 307 µM | >200 | >200 µg/mL | > 154 µM | > 154 µM |  |  | > 307 µM
10 | CC1(C)CC[C@]2(C(=O)O[C@@H]3O[C@H](CO)[C@@H](O)[C@H](O)[C@H]3O)CC[C@]3(C)C(=CC[C@@H]4[C@@]5(C)C[C@@H](O)[C@H](O)[C@@](C)(CO)[C@@H]5CC[C@]43C)[C@@H]2[C@@H]1O [Compound 10, arjunglucoside I] | 148 µM | > 150 µM | > 300 µM | >200 | >200 µg/mL | > 150 µM |  |  |  | > 300 µM
11 | CC1(C)CC[C@]2(C(=O)O[C@@H]3O[C@H](CO)[C@@H](O)[C@H](O)[C@H]3O)CC[C@]3(C)C(=CC[C@@H]4[C@@]5(C)C[C@@H](O)[C@H](O)[C@@](C)(CO)[C@@H]5[C@H](O)C[C@]43C)[C@@H]2C1 [Compound 11, chebuloside II] | > 150 µM | > 150 µM | > 300 µM | >200 | >200 µg/mL | > 150 µM | > 150 µM |  |  | > 300 µM
